Drawing on PubChem BioAssay AID226 (DTP/NCI, 2004), this text covers T/C for 11 compounds.

Where “and” joins values, the source holds several entries; their conditions need not be identical. Equal values may be shown once. Inconclusive results and toxic doses are left out.

The test system of this experiment is B6C3F1 mice, intracerebral ependymoblastoma, median survival T/C. Briefly: NCI In Vivo Anticancer Drug Screen. Data for tumor model Ependymoblastoma (intracerebral) in B6C3F1 mice. Particulars: endpoint: median survival time, higher = longer survival. Here is the method:
The antitumor activity of compounds was measured in mice bearing transplantable tumors. Survival or tumor size were measured and the results are expressed as the measurement made in the treated group (T) divided by the measurement made in the vehicle treated control group (C). The tumor model used in this assay is Ependymoblastoma (intracerebral) in B6C3F1 mice

Where [1] appears, read: dose: 6.0 mg/kg/injection, schedule: Q01DX005 (ip), vehicle: saline with Tween-80.
Setting [2] is: dose: 12.0 mg/kg/injection, schedule: Q01DX005 (ip), vehicle: saline with Tween-80.
Setting [3] is: dose: 12.5 mg/kg/injection, schedule: Q01DX005 (ip), vehicle: saline with Tween-80.
Where [4] appears, read: dose: 25.0 mg/kg/injection, schedule: Q01DX005 (ip), vehicle: saline with Tween-80.
Where [5] appears, read: dose: 50.0 mg/kg/injection, schedule: Q01DX005 (ip), vehicle: saline with Tween-80.
Where [6] appears, read: dose: 8.0 mg/kg/injection, schedule: Q01DX005 (ip), vehicle: Klucel (hydroxypropylcellulose) (HPC).
Where [7] appears, read: dose: 8.0 mg/kg/injection, schedule: Q01DX005 (ip), vehicle: saline with Tween-80.

In the case of `ClC1=C(Cl)C2(Cl)C3C(Cl)C(Cl)CC3C1(Cl)C2(Cl)Cl` (centres undefined), the T/C is 99 % of control and 100 % of control and 105 % of control under setting [1]; 101 % of control (dose: 6.25 mg/kg/injection, schedule: Q01DX005 (ip), vehicle: other); 95 % of control and 96 % of control and 105 % of control under setting [2]; 108 % of control (dose: 12.5 mg/kg/injection, schedule: Q01DX005 (ip), vehicle: other); 96 % of control and 105 % of control and 87 % of control (dose: 24.0 mg/kg/injection, schedule: Q01DX005 (ip), vehicle: saline with Tween-80); 98 % of control (dose: 25.0 mg/kg/injection, schedule: Q01DX005 (ip), vehicle: other). Further, the T/C is 94 % of control and 101 % of control and 110 % of control (dose: 45.0 mg/kg/injection, schedule: Q01DX005 (ip), vehicle: saline with Tween-80); 109 % of control (dose: 50.0 mg/kg/injection, schedule: Q01DX005 (ip), vehicle: other); 101 % of control and 86 % of control and 89 % of control (dose: 90.0 mg/kg/injection, schedule: Q01DX005 (ip), vehicle: saline with Tween-80).

Consider `COc1cc(C[C@H]2c3cc(OC)c(OC)cc3CCN2C)c(Oc2cc3c(cc2OC)-c2c(OC)c(OC)cc4c2[C@H](C3)N(C)CC4)cc1OC`, for which the T/C (dose: 12.5 mg/kg/injection, schedule: Q01DX005 (ip), vehicle: Klucel (hydroxypropylcellulose) (HPC)) is 94 % of control; the T/C (dose: 25.0 mg/kg/injection, schedule: Q01DX005 (ip), vehicle: Klucel (hydroxypropylcellulose) (HPC)) is 100 % of control; the T/C (dose: 50.0 mg/kg/injection, schedule: Q01DX005 (ip), vehicle: Klucel (hydroxypropylcellulose) (HPC)) is 100 % of control and 102 % of control and 105 % of control; the T/C (dose: 100.0 mg/kg/injection, schedule: Q01DX005 (ip), vehicle: Klucel (hydroxypropylcellulose) (HPC)) was 102 % of control.

Turning to `CC(=O)OC1COC(NC(=O)N(CCCl)N=O)C(OC(C)=O)C1OC(C)=O` (centres undefined), the T/C (dose: 0.18 mg/kg/injection, schedule: Q01DX009 (ip), vehicle: saline with Tween-80) is 103 % of control; the T/C (dose: 0.38 mg/kg/injection, schedule: Q01DX009 (ip), vehicle: saline with Tween-80) was 117 % of control; the T/C (dose: 0.75 mg/kg/injection, schedule: Q01DX005 (ip), vehicle: saline with Tween-80) was 113 % of control; the T/C (dose: 1.5 mg/kg/injection, schedule: Q01DX005 (ip), vehicle: saline with Tween-80) is 96 % of control and 121 % of control; the T/C (dose: 3.0 mg/kg/injection, schedule: Q01DX005 (ip), vehicle: saline with Tween-80) is 91 % of control; the T/C (dose: 3.0 mg/kg/injection, schedule: Q01DX009 (ip), vehicle: saline with Tween-80) is 178 % of control. For the same compound, the T/C is, setting by setting: under setting [1], 107 % of control; (dose: 6.0 mg/kg/injection, schedule: Q01DX009 (ip), vehicle: saline with Tween-80) 165 % of control; under setting [2], 158 % of control.

As to `NC(=S)Nc1cccc2ccccc12`, the T/C was 92 % of control (dose: 1.56 mg/kg/injection, schedule: Q01DX005 (ip), vehicle: saline with Tween-80); 100 % of control and 88 % of control (dose: 3.12 mg/kg/injection, schedule: Q01DX005 (ip), vehicle: saline with Tween-80); 92 % of control and 93 % of control (dose: 6.25 mg/kg/injection, schedule: Q01DX005 (ip), vehicle: saline with Tween-80); 91 % of control under setting [3]; 88 % of control and 89 % of control under setting [4]; 91 % of control under setting [5].

For `COc1ccc2c(c1OC(C)=O)-c1cc(OC(C)=O)cc3c1C(C2)N(C(=O)CN(CCCl)CCCl)CC3` (centres undefined), for the setting “dose: 12.5 mg/kg/injection, schedule: Q01DX005 (ip), vehicle: DMSO”, the T/C is 108 % of control.

Consider `O=C(O)CCCc1ccc(N(CCCl)CCCl)cc1`, for which the T/C reads like this: (dose: 0.5 mg/kg/injection, schedule: Q01DX005 (ip), vehicle: Klucel (hydroxypropylcellulose) (HPC)) 114 % of control; (dose: 1.0 mg/kg/injection, schedule: Q01DX005 (ip), vehicle: Klucel (hydroxypropylcellulose) (HPC)) 114 % of control; (dose: 1.0 mg/kg/injection, schedule: Q01DX005 (ip), vehicle: saline with Tween-80) 120 % of control; (dose: 2.0 mg/kg/injection, schedule: Q01DX001 (ip), vehicle: Klucel (hydroxypropylcellulose) (HPC)) 103 % of control and 104 % of control (2×); (dose: 2.0 mg/kg/injection, schedule: Q01DX005 (ip), vehicle: Klucel (hydroxypropylcellulose) (HPC)) 113 % of control; (dose: 4.0 mg/kg/injection, schedule: Q01DX001 (ip), vehicle: Klucel (hydroxypropylcellulose) (HPC)) 97 % of control and 104 % of control and 105 % of control. The T/C reads like this: (dose: 4.0 mg/kg/injection, schedule: Q01DX005 (ip), vehicle: Klucel (hydroxypropylcellulose) (HPC)) 105 % of control; (dose: 8.0 mg/kg/injection, schedule: Q01DX001 (ip), vehicle: Klucel (hydroxypropylcellulose) (HPC)) 100 % of control and 101 % of control and 108 % of control; under setting [6], 113 % of control; under setting [7], 153 % of control; (dose: 16.0 mg/kg/injection, schedule: Q01DX001 (ip), vehicle: Klucel (hydroxypropylcellulose) (HPC)) 104 % of control and 108 % of control and 110 % of control; (dose: 16.0 mg/kg/injection, schedule: Q01DX005 (ip), vehicle: saline with Tween-80) 180 % of control. The T/C (dose: 32.0 mg/kg/injection, schedule: Q01DX001 (ip), vehicle: Klucel (hydroxypropylcellulose) (HPC)) was 114 % of control and 117 % of control and 121 % of control.

As for `Cc1nc(N)nc(N)c1-c1ccc(Cl)c(Cl)c1`, the T/C runs as follows: (dose: 1.25 mg/kg/injection, schedule: Q01DX005 (ip), vehicle: saline) 106 % of control; (dose: 2.5 mg/kg/injection, schedule: Q01DX005 (ip), vehicle: saline) 102 % of control; (dose: 5.0 mg/kg/injection, schedule: Q01DX005 (ip), vehicle: saline) 120 % of control.

As to `Nc1nc([Se])c2ncn(C3OC(CO)C(O)C3O)c2n1` (centres undefined), the T/C (dose: 4.0 mg/kg/injection, schedule: Q01DX005 (ip), vehicle: saline with Tween-80) was 113 % of control; the T/C (dose: 4.0 mg/kg/injection, schedule: Q01DX005 (ip), vehicle: saline) was 102 % of control; the T/C under setting [6] is 106 % of control; the T/C under setting [7] was 109 % of control; the T/C (dose: 8.0 mg/kg/injection, schedule: Q01DX005 (ip), vehicle: saline) was 95 % of control and 105 % of control and 114 % of control; the T/C (dose: 16.0 mg/kg/injection, schedule: Q01DX005 (ip), vehicle: Klucel (hydroxypropylcellulose) (HPC)) was 106 % of control. Also, the T/C is, setting by setting: (dose: 16.0 mg/kg/injection, schedule: Q01DX005 (ip), vehicle: saline) 102 % of control and 108 % of control; (dose: 32.0 mg/kg/injection, schedule: Q01DX005 (ip), vehicle: Klucel (hydroxypropylcellulose) (HPC)) 106 % of control; (dose: 32.0 mg/kg/injection, schedule: Q01DX005 (ip), vehicle: saline) 116 % of control and 121 % of control.

For `O=NN(CCF)C(=O)NC1CCC(=O)NC1=O` (centres undefined), the T/C by setting is: (dose: 5.18 mg/kg/injection, schedule: Q01DX005 (ip), vehicle: Klucel (hydroxypropylcellulose) (HPC)) 186 % of control; (dose: 8.64 mg/kg/injection, schedule: Q01DX005 (ip), vehicle: Klucel (hydroxypropylcellulose) (HPC)) 232 % of control; (dose: 14.4 mg/kg/injection, schedule: Q01DX005 (ip), vehicle: Klucel (hydroxypropylcellulose) (HPC)) 357 % of control; (dose: 24.0 mg/kg/injection, schedule: Q01DX005 (ip), vehicle: Klucel (hydroxypropylcellulose) (HPC)) 357 % of control.

Consider `CN(C)N=Nc1ccc([N+](=O)[O-])cc1C(N)=O`, for which the T/C (dose: 32.0 mg/kg/injection, schedule: Q01DX005 (ip), vehicle: saline with Tween-80) was 112 % of control; the T/C (dose: 256.0 mg/kg/injection, schedule: Q01DX005 (ip), vehicle: saline with Tween-80) was 167 % of control; the T/C (dose: 512.0 mg/kg/injection, schedule: Q01DX005 (ip), vehicle: saline with Tween-80) is 150 % of control.

Turning to `CC(C)(N)C(=O)O`, the T/C is 103 % of control under setting [3]; 114 % of control under setting [4]; 114 % of control under setting [5]; 105 % of control (dose: 100.0 mg/kg/injection, schedule: Q01DX005 (ip), vehicle: saline with Tween-80); 97 % of control (dose: 200.0 mg/kg/injection, schedule: Q01DX005 (ip), vehicle: saline with Tween-80); 95 % of control (dose: 400.0 mg/kg/injection, schedule: Q01DX005 (ip), vehicle: saline with Tween-80). Also, the T/C runs as follows: (dose: 800.0 mg/kg/injection, schedule: Q01DX005 (ip), vehicle: saline with Tween-80) 98 % of control; (dose: 1600.0 mg/kg/injection, schedule: Q01DX005 (ip), vehicle: saline with Tween-80) 116 % of control.
